Reference: ChEMBL document CHEMBL2010689 (J Med Chem, 2012)
Active and inactive are the calls of the source. The rule behind the calls is not given here.

Assays:
[1] = system: A-375; experiment: Antitumor activity against human A375 cells xenografted in po dosed athymic nude mouse assessed as tumor growth inhibition bid measured on day 29 relative to control; type: functional; details: A-375, po, 696 h, read-out: MED
[2] = system: P388; experiment: Antitumor activity against mouse P388 cells xenografted in DBA/2 mouse assessed as mean survival at 30 mg/kg, po qd for 7 days followed by readministeration
[3] = Antiangiogenic activity in HMVEC assessed as inhibition of FGF-induced survival; type: functional, Homo sapiens
[4] = Antitumor activity against human U251MG cells xenografted in athymic nude mouse assessed as complete tumor regression at 1 mg/kg, po bid; type: functional, U-251
[5] = system: A-375; experiment: Antitumor activity against human A375 cells xenografted in athymic nude mouse assessed as tumor growth inhibition at 3 mg/kg, po bid measured on day 29 relative to control; type: functional; details: A-375, 696 h, read-out: GI
[6] = target: Tyrosine-protein kinase Blk (Mus musculus, UniProt P16277); experiment: Inhibition of mouse BLK using ATP as substrate
[7] = target: Fibroblast growth factor receptor 1 (Homo sapiens, UniProt P11362); experiment: Inhibition of human FGFR1 using ATP as substrate
Chain of Fibroblast growth factor receptor 1 (P11362 whole entry): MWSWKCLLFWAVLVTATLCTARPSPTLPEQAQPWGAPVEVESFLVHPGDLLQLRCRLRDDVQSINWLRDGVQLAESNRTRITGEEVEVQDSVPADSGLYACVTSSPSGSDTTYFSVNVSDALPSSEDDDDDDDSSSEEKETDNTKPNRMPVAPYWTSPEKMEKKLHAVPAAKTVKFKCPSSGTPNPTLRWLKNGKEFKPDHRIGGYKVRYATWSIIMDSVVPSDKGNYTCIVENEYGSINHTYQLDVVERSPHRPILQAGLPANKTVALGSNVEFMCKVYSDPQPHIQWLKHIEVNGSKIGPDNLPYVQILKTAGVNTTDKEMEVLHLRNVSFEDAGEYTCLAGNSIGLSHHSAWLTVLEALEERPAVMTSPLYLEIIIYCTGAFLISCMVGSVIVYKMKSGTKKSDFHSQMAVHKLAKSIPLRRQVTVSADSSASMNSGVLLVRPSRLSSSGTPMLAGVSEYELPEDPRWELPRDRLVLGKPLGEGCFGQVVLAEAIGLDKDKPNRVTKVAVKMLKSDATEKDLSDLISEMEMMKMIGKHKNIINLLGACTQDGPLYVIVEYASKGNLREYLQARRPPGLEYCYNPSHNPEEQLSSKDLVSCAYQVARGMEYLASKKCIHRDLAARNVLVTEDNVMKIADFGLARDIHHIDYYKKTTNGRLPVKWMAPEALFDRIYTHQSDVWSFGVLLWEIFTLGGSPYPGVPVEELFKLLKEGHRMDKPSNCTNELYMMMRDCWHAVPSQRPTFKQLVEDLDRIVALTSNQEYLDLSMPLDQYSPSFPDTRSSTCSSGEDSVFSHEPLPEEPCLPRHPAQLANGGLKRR

[8] = target: Vascular endothelial growth factor receptor 1 (Homo sapiens, UniProt P17948); experiment: Inhibition of human VEGFR1 using ATP as substrate
[9] = target: Cytochrome P450 2C19 (Homo sapiens, UniProt P33261); experiment: Inhibition of CYP2C19; type: ADME
[10] = target: Substance-P receptor (Homo sapiens) (UniProt P25103); experiment: Inhibition of neurokinin NK1 receptor at 10 uM
Chain of Substance-P receptor (Homo sapiens) (P25103 whole entry): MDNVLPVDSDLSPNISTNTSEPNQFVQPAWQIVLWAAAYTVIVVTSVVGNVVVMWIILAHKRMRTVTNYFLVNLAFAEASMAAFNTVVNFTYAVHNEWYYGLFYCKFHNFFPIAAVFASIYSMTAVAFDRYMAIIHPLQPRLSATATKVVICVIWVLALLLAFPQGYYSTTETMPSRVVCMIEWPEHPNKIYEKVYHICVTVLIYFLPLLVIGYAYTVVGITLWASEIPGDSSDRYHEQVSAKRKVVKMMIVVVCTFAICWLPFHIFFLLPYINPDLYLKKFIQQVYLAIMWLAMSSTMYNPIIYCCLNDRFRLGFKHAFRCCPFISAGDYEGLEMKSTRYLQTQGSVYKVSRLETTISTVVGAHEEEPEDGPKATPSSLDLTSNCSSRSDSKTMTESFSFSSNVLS

[11] = Inhibition of PKC at 1 uM
[12] = Volume of distribution in Sprague-Dawley rat at 0.8 mg/kg, iv; type: ADME, organism-based; parameters: dose 0.8 mg/kg, route intravenous; details: in vivo
[13] = target: Tyrosine-protein kinase BTK (Homo sapiens, UniProt Q06187); experiment: Inhibition of human BTK using ATP as substrate
Chain of Tyrosine-protein kinase BTK (Q06187 whole entry): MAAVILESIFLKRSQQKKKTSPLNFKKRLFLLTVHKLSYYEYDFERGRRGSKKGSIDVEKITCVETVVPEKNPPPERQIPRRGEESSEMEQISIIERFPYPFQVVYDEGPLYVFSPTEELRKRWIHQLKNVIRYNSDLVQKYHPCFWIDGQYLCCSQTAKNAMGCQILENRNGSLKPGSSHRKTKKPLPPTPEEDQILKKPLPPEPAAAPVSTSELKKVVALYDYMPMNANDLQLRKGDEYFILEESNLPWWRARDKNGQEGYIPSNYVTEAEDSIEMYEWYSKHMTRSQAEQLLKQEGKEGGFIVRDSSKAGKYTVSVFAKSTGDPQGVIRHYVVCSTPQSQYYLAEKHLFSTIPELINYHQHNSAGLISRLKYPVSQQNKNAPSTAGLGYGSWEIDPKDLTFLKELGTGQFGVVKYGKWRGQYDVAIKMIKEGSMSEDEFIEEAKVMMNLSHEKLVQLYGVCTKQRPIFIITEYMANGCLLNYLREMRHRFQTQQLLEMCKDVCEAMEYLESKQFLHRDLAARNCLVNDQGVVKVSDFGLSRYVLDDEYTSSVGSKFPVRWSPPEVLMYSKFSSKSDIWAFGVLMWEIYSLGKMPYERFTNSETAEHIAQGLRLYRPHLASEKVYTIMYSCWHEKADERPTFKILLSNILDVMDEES

[14] = system: A-375; experiment: Antitumor activity against human A375 cells xenografted in athymic nude mouse assessed as partial tumor regression at 1 mg/kg, po bid; type: functional
[15] = system: HUVEC; experiment: Antiangiogenic activity in HUVEC assessed as inhibition of VEGF-induced proliferation; type: functional, cell-based; details: Homo sapiens
[16] = target: Hepatocyte growth factor receptor (Homo sapiens) (UniProt P08581); experiment: Inhibition of cMET at 1 uM
[17] = target: RAC-alpha serine/threonine-protein kinase (Homo sapiens) (UniProt P31749); experiment: Inhibition of PKB at 1 uM
Chain of RAC-alpha serine/threonine-protein kinase (Homo sapiens) (P31749 whole entry): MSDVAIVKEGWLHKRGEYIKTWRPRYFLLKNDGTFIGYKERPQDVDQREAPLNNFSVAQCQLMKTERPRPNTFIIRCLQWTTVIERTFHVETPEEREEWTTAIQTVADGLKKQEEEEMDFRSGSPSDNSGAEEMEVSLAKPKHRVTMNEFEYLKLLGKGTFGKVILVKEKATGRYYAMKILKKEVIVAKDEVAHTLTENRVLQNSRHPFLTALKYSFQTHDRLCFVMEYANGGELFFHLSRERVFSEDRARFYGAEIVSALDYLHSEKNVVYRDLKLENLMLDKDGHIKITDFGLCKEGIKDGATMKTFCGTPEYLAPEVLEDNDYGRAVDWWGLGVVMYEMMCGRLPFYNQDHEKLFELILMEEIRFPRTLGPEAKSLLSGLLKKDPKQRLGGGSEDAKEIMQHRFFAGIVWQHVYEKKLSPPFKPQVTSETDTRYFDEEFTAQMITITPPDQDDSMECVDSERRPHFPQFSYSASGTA

[18] = Clearance in cynomolgus monkey at 0.5 mg/kg, iv; type: ADME, organism-based, Macaca fascicularis; parameters: dose 0.5 mg/kg, route intravenous; details: in vivo
[19] = Cmax in athymic nude mouse tumor xenografted with human U251MG cells at 30 mg/kg, po; type: ADME, organism-based, Neoplasm, U-251; parameters: dose 30 mg/kg, route oral
[20] = system: A-375; experiment: Antitumor activity against human A375 cells xenografted in athymic nude mouse assessed as tumor growth inhibition at 1 mg/kg, po bid measured on day 29 relative to control; type: functional; details: A-375, 696 h, read-out: GI
[21] = target: Casein kinase I isoform alpha (Homo sapiens, UniProt P48729); experiment: Inhibition of CK1 using ATP as substrate
[22] = Oral bioavailability in Sprague-Dawley rat at 5 mg/kg; type: ADME, organism-based; details: in vivo
[23] = system: P388; experiment: Antitumor activity against mouse P388 cells xenografted in DBA/2 mouse assessed as mean survival at 30 mg/kg, po qd (reference value: 14 days); type: functional
[24] = Cmax in Sprague-Dawley rat at 5 mg/kg, po; type: ADME, organism-based; parameters: dose 5 mg/kg, route oral; details: in vivo
[25] = Antitumor activity against human U251MG cells xenografted in athymic nude mouse assessed as tumor growth inhibition at 10 mg/kg, po bid measured on day 29 relative to control; type: functional; details: U-251, 696 h, read-out: GI
[26] = Terminal half life in cynomolgus monkey at 0.5 mg/kg, iv; type: ADME, organism-based, Macaca fascicularis; parameters: dose 0.5 mg/kg, route intravenous; details: in vivo, read-out: beta t1/2 (converted)
[27] = system: Mus musculus; experiment: Toxicity in athymic nude mouse bearing human A375 cells assessed as apparent toxicity at 0.1 to 10 mg/kg, po; type: organism-based, A-375; parameters: dose 0.1-10 mg/kg, route oral; details: in vivo
[28] = system: P388; experiment: Antitumor activity against mouse P388 cells xenografted in DBA/2 mouse assessed as mean survival at 30 mg/kg, po bid for 14 days followed by readministeration after 7 days; type: functional
[29] = target: Receptor-type tyrosine-protein kinase FLT3 (Homo sapiens, UniProt P36888); experiment: Inhibition of human FLT3 using ATP as substrate
Chain of Receptor-type tyrosine-protein kinase FLT3 (P36888 whole entry): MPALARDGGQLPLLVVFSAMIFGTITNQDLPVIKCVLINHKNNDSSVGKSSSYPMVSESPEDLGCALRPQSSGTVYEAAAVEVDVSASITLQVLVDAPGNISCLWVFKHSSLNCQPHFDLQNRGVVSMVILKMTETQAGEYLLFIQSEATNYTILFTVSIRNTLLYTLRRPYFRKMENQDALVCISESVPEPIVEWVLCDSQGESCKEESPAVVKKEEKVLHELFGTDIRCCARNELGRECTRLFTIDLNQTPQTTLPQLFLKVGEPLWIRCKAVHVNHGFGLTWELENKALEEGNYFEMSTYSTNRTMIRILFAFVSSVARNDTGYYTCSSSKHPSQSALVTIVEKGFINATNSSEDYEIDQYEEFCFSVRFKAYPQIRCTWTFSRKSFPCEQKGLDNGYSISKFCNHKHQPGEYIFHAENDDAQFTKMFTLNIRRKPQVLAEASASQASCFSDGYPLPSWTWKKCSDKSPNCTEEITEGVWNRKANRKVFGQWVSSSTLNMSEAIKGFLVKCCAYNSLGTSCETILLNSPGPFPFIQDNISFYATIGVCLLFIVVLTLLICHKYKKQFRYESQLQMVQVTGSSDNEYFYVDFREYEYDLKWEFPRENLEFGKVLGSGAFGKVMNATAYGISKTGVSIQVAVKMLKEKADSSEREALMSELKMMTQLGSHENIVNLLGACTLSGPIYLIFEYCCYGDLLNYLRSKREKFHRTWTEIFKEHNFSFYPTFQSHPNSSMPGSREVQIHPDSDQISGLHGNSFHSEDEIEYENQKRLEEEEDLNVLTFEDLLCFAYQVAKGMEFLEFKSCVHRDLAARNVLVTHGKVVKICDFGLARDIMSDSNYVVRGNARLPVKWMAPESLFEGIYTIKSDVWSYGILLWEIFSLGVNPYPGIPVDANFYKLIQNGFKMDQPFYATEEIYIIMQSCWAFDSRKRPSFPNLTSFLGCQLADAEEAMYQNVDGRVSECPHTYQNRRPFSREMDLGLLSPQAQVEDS

[30] = Inhibition of MKK at 1 uM
[31] = Inhibition of JNK at 1 uM
[32] = system: P388; experiment: Antitumor activity against mouse P388 cells xenografted in DBA/2 mouse assessed as mean survival at 30 mg/kg, po bid for 7 days followed by readministeration after 7 days; type: functional
[33] = Antitumor activity against human U251MG cells xenografted in athymic nude mouse assessed as partial tumor regression at 10 mg/kg, po bid; type: functional, U-251
[34] = target: T1, Cytochrome P450 3A4 (Homo sapiens, UniProt P08684); experiment: Induction of CYP3A4; type: ADME
T1 sequence (P08684 whole entry): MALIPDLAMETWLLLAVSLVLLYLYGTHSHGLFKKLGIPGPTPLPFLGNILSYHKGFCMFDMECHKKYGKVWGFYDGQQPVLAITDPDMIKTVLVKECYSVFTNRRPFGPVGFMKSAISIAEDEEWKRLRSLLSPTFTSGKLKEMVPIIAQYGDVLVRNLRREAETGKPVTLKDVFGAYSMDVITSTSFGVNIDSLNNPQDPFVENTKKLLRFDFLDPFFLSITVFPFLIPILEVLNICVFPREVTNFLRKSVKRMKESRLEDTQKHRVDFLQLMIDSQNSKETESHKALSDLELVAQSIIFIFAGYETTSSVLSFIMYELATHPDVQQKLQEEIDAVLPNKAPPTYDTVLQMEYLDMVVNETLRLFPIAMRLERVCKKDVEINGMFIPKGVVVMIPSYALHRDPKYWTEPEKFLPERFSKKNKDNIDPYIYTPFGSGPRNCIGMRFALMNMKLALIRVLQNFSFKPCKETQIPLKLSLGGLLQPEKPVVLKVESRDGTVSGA

[35] = target: Proto-oncogene tyrosine-protein kinase receptor Ret (Homo sapiens, UniProt P07949); experiment: Inhibition of human RET using ATP as substrate
Chain of Proto-oncogene tyrosine-protein kinase receptor Ret (P07949 whole entry): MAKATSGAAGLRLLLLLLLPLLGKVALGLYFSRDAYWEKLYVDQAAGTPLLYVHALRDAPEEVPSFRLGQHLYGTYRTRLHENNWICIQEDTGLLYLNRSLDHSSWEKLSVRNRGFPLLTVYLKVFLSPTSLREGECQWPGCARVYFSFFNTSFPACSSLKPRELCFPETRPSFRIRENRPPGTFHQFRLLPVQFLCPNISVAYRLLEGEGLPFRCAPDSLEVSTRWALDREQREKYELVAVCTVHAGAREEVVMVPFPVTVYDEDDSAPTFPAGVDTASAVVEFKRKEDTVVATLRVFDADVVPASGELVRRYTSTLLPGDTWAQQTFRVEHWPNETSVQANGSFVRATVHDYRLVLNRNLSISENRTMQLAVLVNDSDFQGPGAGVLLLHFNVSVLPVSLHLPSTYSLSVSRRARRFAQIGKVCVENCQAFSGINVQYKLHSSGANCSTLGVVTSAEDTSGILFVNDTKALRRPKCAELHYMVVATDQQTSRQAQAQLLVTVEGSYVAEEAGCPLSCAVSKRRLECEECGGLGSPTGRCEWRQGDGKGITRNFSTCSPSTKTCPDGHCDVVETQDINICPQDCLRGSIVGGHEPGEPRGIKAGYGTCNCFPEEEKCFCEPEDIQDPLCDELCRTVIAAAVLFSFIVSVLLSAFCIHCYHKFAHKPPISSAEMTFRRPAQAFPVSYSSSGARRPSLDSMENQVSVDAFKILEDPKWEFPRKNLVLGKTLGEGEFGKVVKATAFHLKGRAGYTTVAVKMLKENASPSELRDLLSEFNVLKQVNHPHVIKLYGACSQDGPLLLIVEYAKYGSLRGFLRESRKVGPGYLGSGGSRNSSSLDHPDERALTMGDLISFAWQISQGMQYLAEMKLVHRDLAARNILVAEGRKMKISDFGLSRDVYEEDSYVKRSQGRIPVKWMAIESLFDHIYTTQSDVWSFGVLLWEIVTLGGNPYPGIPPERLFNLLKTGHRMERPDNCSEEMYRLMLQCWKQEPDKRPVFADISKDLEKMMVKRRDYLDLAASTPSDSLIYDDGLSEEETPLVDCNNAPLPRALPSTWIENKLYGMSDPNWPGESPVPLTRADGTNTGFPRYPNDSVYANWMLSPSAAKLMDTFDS

[36] = target: T1, Cytochrome P450 3A4; experiment: Inhibition of CYP3A4; type: ADME
[37] = Inhibition of PDGFR at 1 uM
[38] = Cmax in athymic nude mouse tumor xenografted with human A375 cells at 10 mg/kg, po
[39] = system: Mus musculus; experiment: Toxicity in athymic nude mouse bearing human A375 cells assessed as morbidity at 0.1 to 10 mg/kg, po; type: organism-based, A-375; parameters: dose 0.1-10 mg/kg, route oral; details: in vivo
[40] = system: A-375; experiment: Antitumor activity against human A375 cells xenografted in athymic nude mouse assessed as partial tumor regression at 10 mg/kg, po bid; type: functional
[41] = Plasma protein binding in human; type: ADME, cell-free; details: read-out: PPB (converted)
[42] = Antiangiogenic activity in HMVEC assessed as inhibition of FGF-induced proliferation; type: functional; details: Homo sapiens
[43] = system: A-375; experiment: Antitumor activity against human A375 cells xenografted in athymic nude mouse assessed as complete tumor regression at 10 mg/kg, po bid; type: functional
[44] = Antiangiogenic activity in BAEC assessed as inhibition of VEGF-induced proliferation; type: functional; details: Bos taurus
[45] = system: P388; experiment: Antitumor activity against mouse P388 cells xenografted in DBA/2 mouse assessed as mean survival at 30 mg/kg, po bid for 7 days followed by readministeration after 14 days; type: functional
[46] = AUC in Sprague-Dawley rat at 5 mg/kg, po; type: ADME, organism-based; parameters: dose 5 mg/kg, route oral; details: plasma
[47] = system: A-375; experiment: Antitumor activity against human A375 cells xenografted in athymic nude mouse assessed as complete tumor regression at 1 mg/kg, po bid; type: functional
[48] = Antiangiogenic activity in HMVEC assessed as inhibition of VEGF-induced proliferation; type: functional; details: Homo sapiens
[49] = system: HUVEC; experiment: Antiangiogenic activity in HUVEC assessed as inhibition of capillary-tube formation by matrigel assay; type: functional, cell-based; details: Homo sapiens
[50] = Metabolic stability in human liver S9 fraction assessed as compound remaining after 2 hrs; type: ADME, subcellular; details: read-out: Stability
[51] = Antiangiogenic activity in BAEC assessed as inhibition of FGF-induced proliferation; type: functional; details: Bos taurus

CC(C)Cn1c2ccc(Nc3ncccn3)cc2c2c3c(c4c(c21)CCc1nn(C)cc1-4)C(=O)NC3 [CEP-11981]
minimal effective dose [1]: 0.3 mg/kg | MSD [2]: 20.5 days | EC50 [3]: 8 nM | Activity [4]: 0% | inhibition in vivo at 3 mg/kg [5]: 90% | IC50 [6]: 8 nM | IC50 [7]: 13 nM | IC50 [8]: 3 nM | IC50 [9]: 9000 nM | inhibition [10]: > 80% | inhibition [11]: Active | Vd [12]: 1.3 L/kg | IC50 [13]: 93 nM | Activity [14]: 10% | EC50 [15]: 8 nM | inhibition [16]: Active | inhibition [17]: Active | clearance [18]: 18 mL/min/kg | Cmax [19]: 401 ng/g | inhibition in vivo at 1 mg/kg [20]: 73% | IC50 [21]: 48 nM | bioavailability [22]: 44% | MSD [23]: 23 days | Cmax [24]: 1330 ng/mL | inhibition in vivo at 10 mg/kg [25]: 75% | half-life [26]: 1.7 h | Activity [27]: Non-toxic | MSD [28]: 27.5 days | IC50 [29]: 71 nM | inhibition [30]: Active | inhibition [31]: Active | MSD [32]: 25 days | Activity [33]: 20% | Activity [34]: Not Active | IC50 [35]: 5 nM | IC50 [36]: > 30000 nM | inhibition [37]: Active | Cmax [38]: 140 ng/g | Activity [39]: Non-toxic | Activity [40]: 50% | fraction unbound [41]: 0.05 | EC50 [42]: 8 nM | Activity [43]: 40% | EC50 [44]: 8 nM | MSD [45]: 23 days | AUC [46]: 8560 ng·h/mL | Activity [47]: 20% | EC50 [48]: 8 nM | EC50 [49]: 2 nM | remaining at 2 h [50]: 79% | EC50 [51]: 8 nM
